Reference: ChEMBL document CHEMBL1201862, “PubChem BioAssay data set” (2004)
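The compound was tested at five concentrations on cells cultured in 96-well plates, with a 48-hour exposure period. The concentration for 50% growth inhibition is given as GI50.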 The source made the active and inactive calls. No stated cut-off is given here; in the data, active = GI50 up to about 1.1 µM and inactive = higher.

Tests used:
Assay in all cases: DTP human tumour cell line panel, 48 h
Hs-578T = test system: Hs-578T
NCI-H226 = test system: NCI-H226
HCT-15 = test system: HCT-15
RPMI-8226 = test system: RPMI-8226
K562 = test system: K562
SNB-19 = test system: SNB-19
T47D = test system: T47D
PC-3 = test system: PC-3
786-0 = test system: 786-0
HL-60 = test system: HL-60
IGROV-1 = test system: IGROV-1
HOP-92 = test system: HOP-92
SW-620 = test system: SW-620
UACC-257 = test system: UACC-257
SN12C = test system: SN12C
SF-539 = test system: SF-539
SK-OV-3 = test system: SK-OV-3
UO-31 = test system: UO-31
UACC-62 = test system: UACC-62
Malme-3M = test system: Malme-3M

Structure (SMILES)	GI50 (Hs-578T)	GI50 (NCI-H226)	GI50 (HCT-15) [µM]	GI50 (RPMI-8226)	GI50 (K562)	GI50 (SNB-19)	GI50 (T47D)	GI50 (PC-3)	GI50 (786-0)	GI50 (HL-60)	GI50 (IGROV-1)	GI50 (HOP-92)	GI50 (SW-620)	GI50 (UACC-257)	GI50 (SN12C)	GI50 (SF-539)	GI50 (SK-OV-3)	GI50 (UO-31)	GI50 (UACC-62)	GI50 (Malme-3M)
O=C(Cc1ccc(OCc2cccc(Cl)c2)cc1)NO	30 µM (inactive)	19.4 µM (inactive)	14.1	3.77 µM (inactive)	16.1 µM (inactive)	37.2 µM (inactive)	5.74 µM (inactive)	9.18 µM (inactive)	14.7 µM (inactive)	12.1 µM (inactive)	17.5 µM (inactive)	41 µM (inactive)	31.3 µM (inactive)	53.5 µM (inactive)	27.6 µM (inactive)	29.6 µM (inactive)	29.8 µM (inactive)	12.8 µM (inactive)	18.7 µM (inactive)	–
COC(=O)C1(Cc2ccccc2)Cc2cc3c(cc2C1O)CCC3 (configuration not stated)	13.8 µM (inactive)	19.5 µM (inactive)	30.5	22.7 µM (inactive)	19.7 µM (inactive)	–	28.5 µM (inactive)	19 µM (inactive)	13.6 µM (inactive)	24.5 µM (inactive)	15.8 µM (inactive)	16 µM (inactive)	13.2 µM (inactive)	18.2 µM (inactive)	17.7 µM (inactive)	18.2 µM (inactive)	17 µM (inactive)	> 10 µM (inactive)	16.9 µM (inactive)	14 µM (inactive)
Cc1cccc2c1C/C(=C\c1cccc(C)c1C(=O)O)C2=O	> 100 µM (inactive)	> 100 µM (inactive)	> 100	46.6 µM (inactive)	> 100 µM (inactive)	> 100 µM (inactive)	> 100 µM (inactive)	> 100 µM (inactive)	> 100 µM (inactive)	> 100 µM (inactive)	> 100 µM (inactive)	> 100 µM (inactive)	> 100 µM (inactive)	> 100 µM (inactive)	> 100 µM (inactive)	> 100 µM (inactive)	–	> 100 µM (inactive)	> 100 µM (inactive)	> 100 µM (inactive)
O=C(c1ccccc1)N(C(=O)c1ccccc1)c1nc(SCc2ccccc2)ns1	26.1 µM (inactive)	28.6 µM (inactive)	23.9	19.6 µM (inactive)	29.1 µM (inactive)	50.6 µM (inactive)	25 µM (inactive)	28.2 µM (inactive)	26.7 µM (inactive)	21.8 µM (inactive)	36.9 µM (inactive)	26.7 µM (inactive)	37.2 µM (inactive)	22.2 µM (inactive)	25.2 µM (inactive)	22.3 µM (inactive)	43.2 µM (inactive)	6.11 µM (inactive)	17.1 µM (inactive)	22.7 µM (inactive)
Cc1ccc(SCC(CF)OC(C)n2cnc3c(Cl)nc(N)nc32)cc1 (configuration not stated)	> 100 µM (inactive)	> 100 µM (inactive)	> 100	> 100 µM (inactive)	–	> 100 µM (inactive)	54.6 µM (inactive)	90.6 µM (inactive)	58.7 µM (inactive)	22.7 µM (inactive)	> 100 µM (inactive)	59.8 µM (inactive)	> 100 µM (inactive)	19.3 µM (inactive)	43.3 µM (inactive)	> 100 µM (inactive)	37.2 µM (inactive)	42.5 µM (inactive)	> 100 µM (inactive)	93.5 µM (inactive)
CC1(C)CCCCCCCCCC(C)(CCCO)C1=O (configuration not stated)	20.6 µM (inactive)	16.1 µM (inactive)	17.8	26.5 µM (inactive)	24.6 µM (inactive)	17.8 µM (inactive)	15.6 µM (inactive)	14 µM (inactive)	16.9 µM (inactive)	19.7 µM (inactive)	17.4 µM (inactive)	14.5 µM (inactive)	19.7 µM (inactive)	17.7 µM (inactive)	18.2 µM (inactive)	–	17.4 µM (inactive)	12 µM (inactive)	18.4 µM (inactive)	16.8 µM (inactive)
CC(=O)/C=C/C=C(\C)CC/C=C(\C)CC(C)C	53.5 µM (inactive)	26.9 µM (inactive)	16	17.1 µM (inactive)	21.6 µM (inactive)	42.4 µM (inactive)	14.6 µM (inactive)	38.2 µM (inactive)	34 µM (inactive)	13 µM (inactive)	28.9 µM (inactive)	0.558 µM (active)	17.1 µM (inactive)	23.3 µM (inactive)	31.4 µM (inactive)	21.7 µM (inactive)	55.7 µM (inactive)	76.6 µM (inactive)	18.1 µM (inactive)	–
CN(C)Cc1cc(C(=O)/C=C/c2ccc(Cl)c(Cl)c2)cc(CN(C)C)c1O	3.04 µM (inactive)	3.77 µM (inactive)	2.84	1.99 µM (inactive)	1.31 µM (inactive)	2.56 µM (inactive)	4.41 µM (inactive)	1.96 µM (inactive)	1.36 µM (inactive)	0.826 µM (active)	3.37 µM (inactive)	0.598 µM (active)	1.45 µM (inactive)	2.31 µM (inactive)	2.25 µM (inactive)	2.77 µM (inactive)	–	1.83 µM (inactive)	–	2.88 µM (inactive)
